Measured values from the supplement of paper PMC11451515.

Tested on: P12-Ichikawa
Assay: cell viability relative to DMSO control; higher = less cytotoxic
Settings: 48 h
Outline: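 NOMO1 or SEM cells were plated at 500 cells/well and P12-Ichikawa cells at 1000 cells/well in 1536-well plates (5 μl), after each leukemia line had been adapted for at least four passages in each medium. Pin dosing delivered library compounds in DMSO at 11 threefold concentrations, 47 μM to 0.79 nM. CellTiter-Glo One luminescence was read after 48 h at 37°C. Viability is reported as a per-plate percentage of DMSO wells, with cell-free wells as background.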

[1] = HPLM + 10% dialyzed FBS, 0.000781 µM
[2] = HPLM + 10% dialyzed FBS, 0.00234 µM
[3] = HPLM + 10% dialyzed FBS, 0.00702 µM
[4] = HPLM + 10% dialyzed FBS, 0.0211 µM
[5] = HPLM + 10% dialyzed FBS, 0.0632 µM
[6] = HPLM + 10% dialyzed FBS, 0.19 µM
[7] = HPLM + 10% dialyzed FBS, 0.569 µM
[8] = HPLM + 10% dialyzed FBS, 1.71 µM
[9] = HPLM + 10% dialyzed FBS, 5.12 µM
[10] = HPLM + 10% dialyzed FBS, 15.4 µM
[11] = HPLM + 10% dialyzed FBS, 46.1 µM
[12] = RPMI 5 mM glucose + 10% FBS, 0.000781 µM
[13] = RPMI 5 mM glucose + 10% FBS, 0.00234 µM
[14] = RPMI 5 mM glucose + 10% FBS, 0.00702 µM
[15] = RPMI 5 mM glucose + 10% FBS, 0.0211 µM
[16] = RPMI 5 mM glucose + 10% FBS, 0.0632 µM
[17] = RPMI 5 mM glucose + 10% FBS, 0.19 µM
[18] = RPMI 5 mM glucose + 10% FBS, 0.569 µM
[19] = RPMI 5 mM glucose + 10% FBS, 1.71 µM
[20] = RPMI 5 mM glucose + 10% FBS, 5.12 µM
[21] = RPMI 5 mM glucose + 10% FBS, 15.4 µM
[22] = RPMI 5 mM glucose + 10% FBS, 46.1 µM
[23] = RPMI 5 mM glucose + 10% dialyzed FBS, 0.000781 µM
[24] = RPMI 5 mM glucose + 10% dialyzed FBS, 0.00234 µM
[25] = RPMI 5 mM glucose + 10% dialyzed FBS, 0.00702 µM
[26] = RPMI 5 mM glucose + 10% dialyzed FBS, 0.0211 µM
[27] = RPMI 5 mM glucose + 10% dialyzed FBS, 0.0632 µM
[28] = RPMI 5 mM glucose + 10% dialyzed FBS, 0.19 µM
[29] = RPMI 5 mM glucose + 10% dialyzed FBS, 0.569 µM
[30] = RPMI 5 mM glucose + 10% dialyzed FBS, 1.71 µM
[31] = RPMI 5 mM glucose + 10% dialyzed FBS, 5.12 µM
[32] = RPMI 5 mM glucose + 10% dialyzed FBS, 15.4 µM
[33] = RPMI 5 mM glucose + 10% dialyzed FBS, 46.1 µM

Row | SMILES | cell viability [1] [%] | cell viability [2] [%] | cell viability [3] [%] | cell viability [4] [%] | cell viability [5] [%] | cell viability [6] [%] | cell viability [7] [%] | cell viability [8] [%] | cell viability [9] [%] | cell viability [10] [%] | cell viability [11] [%] | cell viability [12] [%] | cell viability [13] [%] | cell viability [14] [%] | cell viability [15] [%] | cell viability [16] [%] | cell viability [17] [%] | cell viability [18] [%] | cell viability [19] [%] | cell viability [20] [%] | cell viability [21] [%] | cell viability [22] [%] | cell viability [23] [%] | cell viability [24] [%] | cell viability [25] [%] | cell viability [26] [%] | cell viability [27] [%] | cell viability [28] [%] | cell viability [29] [%] | cell viability [30] [%] | cell viability [31] [%] | cell viability [32] [%] | cell viability [33] [%]
1 | C=C1C(=O)OC(CCCCCCCC)C1C(=O)O (stereo not drawn) | 105 | 116 | 113 | 122 | 123 | 122 | 124 | 121 | 129 | 120 | 115 | 124 | 120 | 123 | 132 | 129 | 122 | 137 | 132 | 128 | 129 | 128 | 107 | 116 | 122 | 129 | 124 | 123 | 133 | 131 | 133 | 128 | 113
2 | CN(C)c1ccc2nc3ccc(N(C)C)cc3[s+]c2c1 | 99.5 | 105 | 109 | 105 | 109 | 113 | 111 | 102 | 59.7 | 10.9 | 3.04 | 95.6 | 106 | 96.7 | 109 | 110 | 124 | 115 | 98.5 | 60.3 | 8 | 2.12 | 91.4 | 106 | 98.2 | 96.4 | 104 | 116 | 114 | 94.9 | 71.3 | 12.8 | 2.16
3 | CCOc1cc2ncc(C#N)c(Nc3ccc(F)c(Cl)c3)c2cc1NC(=O)/C=C/CN(C)C | 118 | 116 | 131 | 122 | 116 | 71.7 | 80.9 | 61.1 | 41.6 | 21.1 | 2.69 | 121 | 120 | 123 | 128 | 121 | 95.2 | 85.3 | 71.9 | 57.6 | 26.3 | 5.42 | – | – | – | – | – | – | – | – | – | – | –
